Laboratory results reported in ChEMBL document CHEMBL1833845, “Potent inhibition of bacterial neuraminidase activity by pterocarpans isolated from the roots of Lespedeza bicolor” (Bioorg Med Chem Lett, 2011).

Experiments:
Sialidase [1] = target: T1, Sialidase (Clostridium perfringens, UniProt P10481)
T1 sequence (P10481 whole entry): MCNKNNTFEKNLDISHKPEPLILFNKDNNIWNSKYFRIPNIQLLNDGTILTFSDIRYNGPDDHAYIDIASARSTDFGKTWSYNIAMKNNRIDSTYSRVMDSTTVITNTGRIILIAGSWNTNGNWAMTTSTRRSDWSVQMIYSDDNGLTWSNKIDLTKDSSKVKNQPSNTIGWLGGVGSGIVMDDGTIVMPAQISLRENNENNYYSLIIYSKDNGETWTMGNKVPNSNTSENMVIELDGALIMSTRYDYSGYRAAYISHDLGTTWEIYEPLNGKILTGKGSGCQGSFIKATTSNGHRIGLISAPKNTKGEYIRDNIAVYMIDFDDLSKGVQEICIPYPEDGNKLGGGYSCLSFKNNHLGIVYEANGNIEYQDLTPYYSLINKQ

Sialidase [2] = target: T1, Sialidase; remark: listed apart in the source

| SMILES | IC50 (Sialidase [1]) [nM] | Ki (Sialidase [2]) [nM] |
| --- | --- | --- |
| COc1c(CC=C(C)C)c(O)cc2c1[C@@H]1Oc3c(cc(C)c(O)c3CC=C(C)C)[C@@H]1CO2 [BICOLOSIN A] | 320 | 160 |
| CC(C)=CCc1cc2c(cc1O)OCC1c3cc(C)c(O)c(CC=C(C)C)c3OC21 (stereo not drawn) [LESPEBUERGINE G4] | 1840 | 1350 |
| COc1cc(O)c(C/C=C(\C)CCC=C(C)C)c2c1[C@@H]1Oc3cc(O)ccc3[C@@H]1CO2 [BICOLOSIN C] | 170 | 160 |
| CC(C)=CCC/C(C)=C/Cc1cc2c(cc1O)OC[C@H]1c3cc(C)c(O)c(CC=C(C)C)c3O[C@@H]21 [BICOLOSIN B] | 1060 | 1200 |
| COc1c(CC=C(C)C)c(O)cc2c1[C@@H]1Oc3c(ccc(O)c3CC=C(C)C)[C@@H]1CO2 | 90 | 110 |
| O=c1c(O)c(-c2ccc(O)c(O)c2)oc2cc(O)cc(O)c12 [QUERCETIN] | 10100 | – |
| CC(C)=CCc1cc2c(cc1O)OC[C@H]1c3ccc(O)c(CC=C(C)C)c3O[C@@H]21 [ERYBRAEDIN C] | 3350 | 2730 |
